# Results as given in publication PMC10244169, “Psychedelics promote plasticity by directly binding to BDNF receptor TrkB” (Nature Neuroscience, 2023).
# B1: TrkB TMD (transmembrane residues of human TrkB, T423-G466) (domain or fragment, UniProt Q16620 423-466, looked up)
# chain: TDKTGREHLSVYAVVVIASVVGFCLLVMLFLLKLARHSKFGMKG
# notes: human TrkB, transmembrane residues T423-G466, UniProt Q16620; 15N- or 15N,13C-labelled; Cloned by NdeI and HindIII into pGEMEX1
# Experiments:
# [1] = target: T1, TrkB (Rattus norvegicus, UniProt Q63604); assay: biochemical; type: binding; details: for displacement of ^3H-LSD from TrkB: 1 nM to 10 µM of drug; for K (one phase exponential decay, best-fit) / Plateau (one phase exponential decay, best-fit) / Span (one phase exponential decay, best-fit): ext fig 1h
# T1 construct: expressed in transfected cells; host or cells: HEK293T
# T1 sequence (Q63604 32-821): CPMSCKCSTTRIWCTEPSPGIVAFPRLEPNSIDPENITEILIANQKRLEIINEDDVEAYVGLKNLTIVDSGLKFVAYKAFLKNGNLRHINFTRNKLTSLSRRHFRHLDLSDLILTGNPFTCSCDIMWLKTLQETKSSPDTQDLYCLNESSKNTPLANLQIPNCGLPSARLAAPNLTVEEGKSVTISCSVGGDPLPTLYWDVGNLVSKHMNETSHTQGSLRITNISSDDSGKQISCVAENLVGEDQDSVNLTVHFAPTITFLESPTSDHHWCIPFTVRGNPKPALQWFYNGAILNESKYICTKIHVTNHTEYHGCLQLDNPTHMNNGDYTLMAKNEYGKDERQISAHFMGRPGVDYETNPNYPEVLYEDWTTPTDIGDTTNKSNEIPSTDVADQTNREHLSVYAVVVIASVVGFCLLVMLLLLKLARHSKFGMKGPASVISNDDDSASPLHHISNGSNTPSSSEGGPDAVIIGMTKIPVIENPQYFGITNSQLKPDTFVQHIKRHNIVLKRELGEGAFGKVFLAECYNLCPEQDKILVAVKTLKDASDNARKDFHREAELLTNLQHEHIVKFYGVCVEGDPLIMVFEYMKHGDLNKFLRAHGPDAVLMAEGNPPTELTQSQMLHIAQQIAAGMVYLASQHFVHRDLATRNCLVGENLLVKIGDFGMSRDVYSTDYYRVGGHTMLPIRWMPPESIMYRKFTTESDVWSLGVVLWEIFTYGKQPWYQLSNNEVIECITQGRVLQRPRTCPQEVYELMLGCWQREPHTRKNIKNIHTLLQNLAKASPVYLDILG
# [2] = Supplementary Table 3 legend; source not stated; cited from earlier work
# [3] = target: T2, TrkB (WT) dimerization (Rattus norvegicus, UniProt Q63604); assay: Split-luciferase PCA of TrkB dimerization in N2a cells; type: cell-based; details: ketanserin 100 nM, M100907 100 nM or TrkB.FC 200 ng ml^−1, 10 min before
# T2 construct: expressed in transfected cells; host or cells: N2a
# T2 sequence (Q63604 32-821): as above
# T2 sequence (Q63604 32-821): as above
# Method: Ketanserin, M100907 and TRKB.FC were added to the media 10 min before treatment. The PCA method was performed as previously described[11],[75],[76]. Split humanized Gaussia princeps luciferase (hGLuc) was cloned on the C-terminus of the reporter proteins TrkB (WT and Y433F) and lipid raft Fyn. If the reporter proteins that carry complementary halves of the luciferase interact, the enzyme can refold in its functional conformation and, upon addition of its substrate, produce luminescence proportionally to the amount of reporter proteins interacting at a given time. N2a cells were seeded in 96-well plates with opaque walls and transparent bottom (PerkinElmer, ViewPlate 96). Cells were transfected with Lipofectamine 2000 according to the manufacturer’s instructions 24 h post-plating with the PCA pair plasmids: phGLuc(1C)-TrkB(WT) or the mutant phGLuc(1C)-TrkB(Y433F) and phGLuc(2 C)-TrkB(WT) for the dimerization experiments; phGLuc(1C)-lipid raft Fyn and phGLuc(2C)-TrkB(WT) or phGLuc(2C)-TrkB(Y433F) for the lipid raft localization experiments. Forty-eight hours post transfection, cells were treated (40 min, 37 °C) in phenol red-free Dulbecco’s modified Eagle medium without serum. […] The PCA signal was detected with the substrate for the luciferase, native coelenterazine, which was injected into each well directly in the plate reader at a final concentration of […].
# [4] = test system: dendritic arbor complexity of neuronal cultures; set-up: method as in PMID 29898390; details: cultured neurons; cited from earlier work
# [5] = target: T1, TrkB; assay: Competition binding with biotinylated R,R-HNK
# Method: Binding assays were performed as previously described with minor modifications. […] Samples from mouse embryo (E18) brains were also lysed, vortexed, sonicated and centrifuged for binding assays. Plates were then washed with PBS. […] For the competition binding assays with biotinylated R,R-HNK, the amino-biotinylation of R,R-HNK was performed using a commercial kit (Thermo Scientific, EZ-Link NHS-PEG4 Biotinylation Kit, 21455) and the reaction monitored by MS. A mixture of biotinylated R,R-HNK (10 µM) and unlabeled compounds (1 pM to 10 µM) in PBS was added to the 96-well plates containing the immunoprecipitated TrkB and incubated for 1 h at room temperature. […] Luminescence was determined via streptavidin conjugated with horseradish peroxidase (HRP; Thermo Fisher Scientific, 21126; 1:5,000, 1 h at room temperature) in reaction with the Pierce ECL substrate (Thermo Fisher Scientific, 32106). Luminescence from blank wells that contained all reagents but the sample lysates was used to determine nonspecific binding. To obtain the binding curves, results from binding assays were fitted to the equation of specific binding with Hill slope from GraphPad Prism 9.2. To calculate koff values, results were fitted to the equation of dissociation of one phase exponential decay from GraphPad Prism 9.2.
# [6] = test system: TrkB; assay: Western blot of TrkB protein expression in N2a cells; type: cell-based; details: WT and Y433F^+/−
# Method: In a separate set of experiments to examine the effect of 5-HT2A activation, M100907 (100 nM) was administered as a 10 min pretreatment and remained in the medium for the rest of the experiment. Next, cells were lysed and centrifuged. […] The co-immunoprecipitation was carried out as previously described[11],[23],[24] with minor modifications. Briefly, Magnetic Dynabeads Protein G (Invitrogen, 10004D) were coated with anti-TrkB antibody (R&D Systems, AF1494) at 200 ng of antibody per 1 µl of beads in rotation (2 h, 4 °C). Finally, lysates were mixed with the coated beads (100 µg of total protein per 15 µl of beads) and incubated in rotation (overnight, 4 °C).
# Proteins were separated according to their molecular weight by SDS–PAGE and transferred to a polyvinylidene fluoride membrane. Membranes were incubated with the following primary antibodies (all 1:1,000 in 3% BSA in TBS-T, overnight, 4 °C): anti-TrkB (R&D Systems, AF1494), anti-β-actin (Sigma-Aldrich, A1978), anti-phospho-mTOR (Cell Signaling Technology, 5536S), anti-phospho-p44/42 MAPK (Erk1/2) (Cell Signaling Technology, 9106S), anti-mTOR (Cell Signaling Technology, 2972S) and anti-p44/42 MAPK (Erk1/2) (Cell Signaling Technology, 9102S). […] Protein bands were visualized using enhanced chemiluminescent substrate (Thermo Scientific, 32132, ECL Plus) and imaged with a charge-coupled device camera (G:BOX, Syngene).
# [7] = test system: dendritic arbor complexity of neuronal cultures; assay: Dendritogenesis (Sholl analysis) in neuronal cultures (WT and Y433F^+/−); type: cell-based, mouse; details: for e6e group mean (dendritogenesis, Sholl analysis): BDNF; for e6e Mean Diff. (Veh. minus BDNF): uncorrected Fisher's LSD
# Method: In a separate set of experiments to study the effects of extracellular BDNF and 5-HT2A activation, cultures were also pretreated for 10 min with TrkB.FC (200 ng ml^−1) or M100907 (100 nM), respectively. Similar to treatment with the psychedelics, TrkB.FC and M100907 pretreatments were administered in cumulative doses and remained in the medium for the rest of the experiment. At DIV7, neurons were pre-incubated for 1 h with […] MgCl2 to prevent excitotoxicity, then neurons were transfected for the heterologous expression of mCherry. To minimize any possible interference of the transfection protocol upon the drug effect, transfection was done in the morning while treatment with psychedelics was always added in the evening. Twenty-four hours after transfection, neurons were fixed with 4% PFA for 20 min at room temperature, washed in PBS-T, blocked for 30 min with 3% BSA in PBS-T and incubated with chicken anti-MAP2 (Abcam, ab5392; 1:5,000, 1 h, room temperature). Then, coverslips were washed in PBS-T and incubated with Alexa Fluor 647-conjugated antibody goat anti-chicken (Invitrogen, A-21449; 1:1,000, 1 h, room temperature). Next, coverslips were washed in PBS-T and MilliQ water, and mounted in Dako fluorescence mounting medium (Agilent, S302380-2). Ten optical sections with a Z-step of 1.3 μm were acquired using a Zeiss LSM 710 confocal microscope with a LCI Plan/Neofluar 25×/0.8 lmm Korr DIC M27 objective. In the mCherry channel, the center of the soma was manually assigned and the number of dendritic intersections at fixed distances (every 5 μm) from the soma was automatically counted using the Sholl analysis plugin of ImageJ.
# [8] = target: the molecule itself; assay: NMR titration; 1H,15N-HSQC spectra of TrkB TMD in DMPC/DHPC bicelles at various lipid-to-protein ratios, 40 °C, pH 6.0; monomer to dimer
# [9] = ext fig 1f, competition curve, n=5
molecule,measurement,setting,value
C=CCN1C[C@H](C(=O)N(CCCN(C)C)C(=O)NCC)C[C@@H]2c3cccc4[nH]cc(c34)C[C@H]21 [cabergoline],displacement of ^3H-LSD from TrkB,[1],fail to displace ^3H-LSD
same,"K (one phase exponential decay, best-fit)",[1],776405
same,"Plateau (one phase exponential decay, best-fit)",[1],113.3
same,"Span (one phase exponential decay, best-fit)",[1],-10.49
same,pKa,[2],6.22
CN1C[C@H](C(=O)N[C@]2(C)O[C@@]3(O)[C@@H]4CCCN4C(=O)[C@H](Cc4ccccc4)N3C2=O)C[C@@H]2c3cccc4[nH]cc(c34)C[C@H]21 [dihydroergotamine],displacement of ^3H-LSD from TrkB,[1],fail to displace ^3H-LSD
same,"K (one phase exponential decay, best-fit)",[1],5.40E+07
same,"Plateau (one phase exponential decay, best-fit)",[1],93.57
same,"Span (one phase exponential decay, best-fit)",[1],15.09
same,pKa,[2],6.75
"O=C(c1ccc(F)cc1)C1CCN(CCn2c(=O)[nH]c3ccccc3c2=O)CC1 [ketanserin, ketanserin (+)-tartrate]",effect of pretreatment on LSD- and BDNF-induced TrkB dimerization,[3],fails to prevent the effects of LSD and BDNF on TrkB dimerization
same,displacement of ^3H-LSD from TrkB,[1],fail to displace LSD binding to TrkB
same,"Fit status, specific binding with Hill slope",[1]; ext fig 1f,Ambiguous
same,"Bmax (specific binding with Hill slope, best-fit)",[1]; [9],96.24
same,"h (Hill slope, best-fit)",[1]; [9],~ 0.3927
same,effect on LSD effects on dendritic arbor complexity,[4],prevent the effects of LSD on dendritic arbor complexity
same,"displacement of biotinylated R,R-HNK from TrkB","[5]; biotinylated R,R-HNK 10 µM","not ketanserin, displace R,R-HNK binding to TrkB"
same,"K (one phase decay, best-fit)",[5]; ext fig 1g,1491612413
same,"Plateau (one phase decay, best-fit)",[5]; ext fig 1g,97.9
same,"Span (one phase decay, best-fit)",[5]; ext fig 1g,2.855
same,"Tau (one phase decay, best-fit)",[5]; ext fig 1g,6.70E-10
same,"Y0 (one phase decay, best-fit)",[5]; ext fig 1g,100.8
BDNF: Brain-derived neurotrophic factor,total TrkB expression,[6],No differences in total TrkB expression
same,"e6f Sholl profile, mean","[7]; WT + BDNF, distance from soma 10 µm",6.929
same,"e6f Sholl profile, mean","[7]; WT + BDNF, distance from soma 15 µm",9.643
same,"e6f Sholl profile, mean","[7]; WT + BDNF, distance from soma 20 µm",7.929
same,"e6f Sholl profile, mean","[7]; WT + BDNF, distance from soma 25 µm",7.929
same,"e6f Sholl profile, mean","[7]; WT + BDNF, distance from soma 30 µm",6
same,"e6f Sholl profile, mean","[7]; WT + BDNF, distance from soma 35 µm",4.5
same,"e6f Sholl profile, mean","[7]; WT + BDNF, distance from soma 40 µm",3.857
same,"e6f Sholl profile, mean","[7]; WT + BDNF, distance from soma 45 µm",3.571
same,"e6f Sholl profile, mean","[7]; WT + BDNF, distance from soma 50 µm",2.714
same,"e6f Sholl profile, mean","[7]; WT + BDNF, distance from soma 55 µm",2.429
same,"e6f Sholl profile, mean","[7]; WT + BDNF, distance from soma 60 µm",2.786
same,"e6f Sholl profile, mean","[7]; WT + BDNF, distance from soma 65 µm",2.643
same,"e6f Sholl profile, mean","[7]; WT + BDNF, distance from soma 70 µm",3.143
same,"e6f Sholl profile, mean","[7]; WT + BDNF, distance from soma 75 µm",2.929
same,"e6f Sholl profile, mean","[7]; WT + BDNF, distance from soma 80 µm",2.714
same,"e6f Sholl profile, mean","[7]; WT + BDNF, distance from soma 85 µm",2.786
same,"e6f Sholl profile, mean","[7]; WT + BDNF, distance from soma 90 µm",2.286
same,"e6f Sholl profile, mean","[7]; WT + BDNF, distance from soma 95 µm",1.857
same,"e6f Sholl profile, mean","[7]; WT + BDNF, distance from soma 100 µm",1.857
same,"e6e group mean (dendritogenesis, Sholl analysis)","[7]; WT neuronal cultures, n=14",78.5
same,e6e Mean Diff. (Veh. minus BDNF),[7]; WT:Veh. vs. WT:BDNF,-30.1
same,"e6f Sholl profile, mean","[7]; Y433F+/- + BDNF, distance from soma 10 µm",8.0625
same,"e6f Sholl profile, mean","[7]; Y433F+/- + BDNF, distance from soma 15 µm",9.4375
same,"e6f Sholl profile, mean","[7]; Y433F+/- + BDNF, distance from soma 20 µm",10.25
same,"e6f Sholl profile, mean","[7]; Y433F+/- + BDNF, distance from soma 25 µm",8.8125
same,"e6f Sholl profile, mean","[7]; Y433F+/- + BDNF, distance from soma 30 µm",8.1875
same,"e6f Sholl profile, mean","[7]; Y433F+/- + BDNF, distance from soma 35 µm",6.3125
same,"e6f Sholl profile, mean","[7]; Y433F+/- + BDNF, distance from soma 40 µm",5.375
same,"e6f Sholl profile, mean","[7]; Y433F+/- + BDNF, distance from soma 45 µm",5.1875
same,"e6f Sholl profile, mean","[7]; Y433F+/- + BDNF, distance from soma 50 µm",3.9375
same,"e6f Sholl profile, mean","[7]; Y433F+/- + BDNF, distance from soma 55 µm",3.6875
same,"e6f Sholl profile, mean","[7]; Y433F+/- + BDNF, distance from soma 60 µm",3.25
same,"e6f Sholl profile, mean","[7]; Y433F+/- + BDNF, distance from soma 65 µm",2.5625
same,"e6f Sholl profile, mean","[7]; Y433F+/- + BDNF, distance from soma 70 µm",2.5
same,"e6f Sholl profile, mean","[7]; Y433F+/- + BDNF, distance from soma 75 µm",1.875
same,"e6f Sholl profile, mean","[7]; Y433F+/- + BDNF, distance from soma 80 µm",2
same,"e6f Sholl profile, mean","[7]; Y433F+/- + BDNF, distance from soma 85 µm",1.625
same,"e6f Sholl profile, mean","[7]; Y433F+/- + BDNF, distance from soma 90 µm",1.4375
same,"e6f Sholl profile, mean","[7]; Y433F+/- + BDNF, distance from soma 95 µm",1.75
same,"e6f Sholl profile, mean","[7]; Y433F+/- + BDNF, distance from soma 100 µm",1.3125
same,"e6e group mean (dendritogenesis, Sholl analysis)","[7]; Y433F+/- neuronal cultures, n=16",87.56
same,e6e Mean Diff. (Veh. minus BDNF),[7]; Y433F+/-:Veh. vs. Y433F+/-:BDNF,-34.03
same,dendritic arbor complexity,[7]; cultures from WT mice,increases dendritic arbor complexity
same,dendritic arbor complexity,[7]; cultures from Y433F^+/− mice,increased dendritic arbor complexity
B1,binding result,[8],binds
